For one assay, the system named is cdk5. Briefly: cdk5 activity in extracts of treated hippocampal slice cultures. In kind it is cell-based, rat. The protocol: (§1) Organotypic cultures of rat hippocampal slices were prepared from 20-30 day old Wistar rats and cultured with the interface method as described previously (Stoppini, et al. 1991; Bahr, et al. 1995; Zhongrin, et al. 2000). The rats were anesthetized with ketamine (100 mg/kg body weight) and decapitated and the hippocampi were dissected out and sliced into 400 um coronal sections by a McIllwain tissue chopper. Select slices with uninterrupted bright transparent neuronal layers were plated, 1-3 slices/filter, onto Millicell CM filters (Millipore, Bedford, Mass.). For the first 2 days in vitro (DIV) cultures were maintained in 25% horse serum, 50% Basal Media-Eagle (BEM), 25% Eagle's Balanced Salt Solution (EBSS), 25 mM HEPES, 1 mM glutamine, 28 mM glucose, pH 7.2, at 32° C. in a 5% CO2 humidified atmosphere. The slice cultures were then switched to 25% horse serum, 50% BEM and EBSS modified so that the potassium concentration was 2.66 mM, for another 5 DIV. After 7 DIV, the cultures were maintained in physiological potassium containing 5% horse serum medium at 35° C. for at least 20 days before any treatment was applied. When the slices were treated, the reagents were applied into the culture medium. […]

Assay [1] relates to PP-1. Description: PP-1 activity in extracts of treated hippocampal slice cultures. The assay is classed as cell-based, rat. The settings on record: OA up to 1 μM, up to 48 h. The protocol: The rats were anesthetized with ketamine (100 mg/kg body weight) and decapitated and the hippocampi were dissected out and sliced into 400 um coronal sections by a McIllwain tissue chopper. Select slices with uninterrupted bright transparent neuronal layers were plated, 1-3 slices/filter, onto Millicell CM filters (Millipore, Bedford, Mass.). […] After 7 DIV, the cultures were maintained in physiological potassium containing 5% horse serum medium at 35° C. for at least 20 days before any treatment was applied. When the slices were treated, the reagents were applied into the culture medium. At different time points, the slices collected with a brush were washed twice in homogenizing buffer (50 mM HEPES, pH 7.0, 10 mM β-merceptoethanol [BME], 1 mM EDTA, 1 mM EGTA, 0.1 mM phenylmethyl sulfonyl fluoride [PMSF], 2.0 mM benzamidine and 2.0 μg/ml each of aprotinin, leupeptin and pepstatin) and homogenized at 4° C. using a Teflon-glass homogenizer. The homogenate was then divided into two parts, one was centrifuged at 16000×g for 15 min and the supernatant was used to assay activities of PP-2A and PP-1. The rest of the homogenate was diluted 1:1 with a phosphatase inhibitor cocktail (20 mM β-glycerophosphate, 2 mM Na3VO4 and 100 mM NaF, pH 7.0) and either used for Western blots or centrifuged at 16000×g for 15 min and the resulting supernatant used to determine the kinase activities.

The test system of another assay is pNF-H/M. Description: Immunohistochemical staining of neurofilaments (pNF-H/M) in cultured hippocampal slices. In kind it is cell-based, rat. The settings on record: 100 nM OA 24 h. Here is the method: as §1, with “DIV.” for “DIV. After 7 DIV, the cultures were maintained in physiological potassium containing 5% horse serum medium at 35° C. for at least 20 days before any treatment was applied. When the slices were treated, the reagents were applied into the culture medium.”
(§2) After different treatments some of the hippocampal slices were fixed in periodate/lysine/paraformaldehyde solution (Mclean, et al. 1974) at 33° C. for 5 h and then kept in 1% Triton-x-100 in PBS (pH 7.4) for 72 h at room temperature to improve the penetration of the antibodies. […] Peroxidase was detected using 0.05% diaminobenzidine (DAB) and H2O2 (0.01%) for 10 min.

In assay [2] the test system is MAP2. Description: 125I-Western blots of MAP2 in slice homogenates. The assay is classed as cell-based, rat. Here is the method: as §1, with “DIV.” for “DIV. After 7 DIV, the cultures were maintained in physiological potassium containing 5% horse serum medium at 35° C. for at least 20 days before any treatment was applied. When the slices were treated, the reagents were applied into the culture medium.”
(§3) The phosphorylation of tau at Ser 262 and the levels of MAP2 and phosphorylated NF-H/M were assayed by ^125I-Western blots. […] Both immuno-dot-blots and Western blots were developed with ^125I-radiolabeled secondary antibodies and radioimmunoreactivity was visualized and quantitated using a phosphorimager (Fujifilm BAS-1500) and TINA 2.0 software (Raytest Isotopenmessgeräte GmbH)

The subject of a further assay is NF-H/M. Briefly: 125I-Western blots of phosphorylated NF-H/M in slice homogenates. The assay is classed as cell-based, rat. The protocol:
as §1, with “DIV.” for “DIV. After 7 DIV, the cultures were maintained in physiological potassium containing 5% horse serum medium at 35° C. for at least 20 days before any treatment was applied. When the slices were treated, the reagents were applied into the culture medium.”
as §3
A general note: In western blotting, separated proteins are transferred to a membrane and probed.

The target of assay [3] is T1, PP-2A (Homo sapiens, UniProt P67775). The settings on record: read-out: in vitro IC50; cited from earlier work.
Assay [4] concerns PP-1. The settings on record: 10 nM OA, 24 h; cited from earlier work.
Assay [5] concerns PP-1. Particulars: up to 5 μM OA, 3 h; cited from earlier work.
Assay [6] addresses T1, PP-2A. Details: treatment of the SY5Y human neuroblastoma in culture with 10 nM OA for 24 h; host or cells: SY5Y human neuroblastoma cells (endogenous). Particulars: 10 nM OA, 24 h; cited from earlier work.
Assay [7] deals with MAP2. Description: Immunohistochemical staining of MAP2 in cultured hippocampal slices. Particulars: 100 nM OA 24 h, then 10 μM Memantine 24 h. The assay is classed as cell-based, rat. The protocol: as §1, with “DIV.” for “DIV. After 7 DIV, the cultures were maintained in physiological potassium containing 5% horse serum medium at 35° C. for at least 20 days before any treatment was applied. When the slices were treated, the reagents were applied into the culture medium.”
as §2

pIC50: −log10 of the molar value. “Also recorded” adds a separate entry of the source. Where two headings read alike, the source gives them in different places.

In general, pIC50 refers to −log10 of the IC50, conventionally taken in molar units.

T1 sequence (P67775 whole entry): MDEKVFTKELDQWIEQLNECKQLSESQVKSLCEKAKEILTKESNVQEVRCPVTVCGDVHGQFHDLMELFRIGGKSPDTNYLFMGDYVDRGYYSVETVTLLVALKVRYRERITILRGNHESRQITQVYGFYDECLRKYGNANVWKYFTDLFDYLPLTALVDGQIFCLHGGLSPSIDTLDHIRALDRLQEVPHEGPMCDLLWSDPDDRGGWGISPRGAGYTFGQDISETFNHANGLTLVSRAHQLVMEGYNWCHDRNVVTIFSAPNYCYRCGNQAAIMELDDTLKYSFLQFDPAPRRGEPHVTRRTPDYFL

Take `C=C1[C@@H](O)[C@@H]2O[C@]3(CC[C@H](/C=C/[C@@H](C)[C@@H]4CC(C)=C[C@@]5(O[C@H](C[C@@](C)(O)C(=O)O)CC[C@H]5O)O4)O3)CC[C@H]2O[C@@H]1[C@@H](O)C[C@H](C)[C@H]1O[C@@]2(CCCCO2)CC[C@H]1C` [OA, Okadaic Acid]: the “change in cdk5 activity” value with cdk5 (OA-treated slice cultures) is listed as “no significant change; also recorded: neither OA nor Memantine had any significant effect; also recorded: no significant alteration”. Besides, in the assay on PP-1 [1], the “inhibition of PP-1 activity” value is recorded as “no significant changes; also recorded: no detectable inhibition”. Moreover, the “neurofilament (pNF-H/M, SMI 31) immunostaining” value in the assay on pNF-H/M (then medium 24 h) is “immunostaining was increased; also recorded: an increase in phosphorylation and accumulation of NF-H/M”. Further, in the assay with MAP2 [2] (OA-treated cultures), the MAP2 level result is “a decrease in MAP2”. In addition, the “phosphorylated NF-H/M level” value in the assay on NF-H/M (OA-treated cultures) is reported as “increase in phosphorylated NF-H/M”. For the same compound, the pIC50 on PP-2A [3] is roughly 9.00. Further, the entries for the “inhibition of PP-1” value in the assay with PP-1 [4] and in the assay with PP-1 [5] were roughly 65% and “no detectable inhibition”, respectively. Besides, the “inhibition of PP-2A” value at PP-2A [6] was “complete inhibition”.

For the compound `CC12CC3CC(C)(C1)CC(N)(C3)C2` [Memantine, 1-amino-3,5-dimethyl adamantane], the “effect on cdk5 activity” value with cdk5 (Memantine in OA-treated cultures) is listed as “neither OA nor Memantine had any significant effect; also recorded: no significant effect”. Also, in the assay with MAP2 [7], the MAP2 immunostaining result was “beaded accumulation of MAP2 in dendrites was reduced and overall staining was increased; also recorded: a decrease in the degeneration and restoration of the staining of the neuropil; also recorded: partially reversed”. Besides, the “neurofilament (pNF-H/M, SMI 31) immunostaining” value in the assay with pNF-H/M (then 10 μM Memantine 24 h) was “reduced these changes; also recorded: partially reversed”. For the same compound, the MAP2 level result with MAP2 [2] (OA then Memantine) is “reversal to normal levels; also recorded: increased the levels of MAP2”. Further, in the assay on NF-H/M (OA plus/then Memantine), the “phosphorylated NF-H/M level” value is “reversed the OA-induced increase in phosphorylated NF-H/M; also recorded: reversal of phosphorylation and accumulation of NF-H/M subunits; also recorded: reversed the hyperphosphorylation of NF-H/M”.

These data come from patent publication US20040019118A1, “NMDA receptor antagonists and their use in inhibiting abnormal hyperphosphorylation of microtubule associated protein tau” (priority 2002, published 2004).
